PubChem BioAssay AID248 (DTP/NCI, 2004)
Toxic doses and inconclusive results are not listed. No stated cut-off is given here; in the data, active means T/C of 150% or more; inactive means T/C below 125%.

Test system: L1210 leukemia ip in BDF1 mice, survival T/C
Assay: NCI In Vivo Anticancer Drug Screen. Data for tumor model L1210 Leukemia (intraperitoneal) in B6D2F1 (BDF1) mice
Conditions: endpoint: mean survival time, higher = longer survival
Outline: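 Read-out is survival time, reported as the treated-group measurement over the vehicle-control measurement.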

[1] = dose: 100.0 mg/kg/injection, schedule: Q04DX003 (ip), vehicle: saline
[2] = dose: 25.0 mg/kg/injection, schedule: Q04DX003 (ip), vehicle: saline
[3] = dose: 100.0 mg/kg/injection, schedule: Q01DX001 (ip), vehicle: saline
[4] = dose: 200.0 mg/kg/injection, schedule: Q01DX001 (ip), vehicle: saline

Measured: T/C

C=CCNC(N)=S
inactive: dose: 100.0 mg/kg/injection, schedule: Q04DX002 (ip), vehicle: saline 100 % of control | dose: 200.0 mg/kg/injection, schedule: Q04DX002 (ip), vehicle: saline 107 % of control | dose: 400.0 mg/kg/injection, schedule: Q04DX002 (ip), vehicle: saline 95 % of control

CC(=O)OC1CCC(N)CC1 (stereo unspecified)
inactive: dose: 100.0 mg/kg/injection, schedule: Q01DX001 (ip), vehicle: other 98 % of control | dose: 200.0 mg/kg/injection, schedule: Q01DX001 (ip), vehicle: other 96 % of control | dose: 400.0 mg/kg/injection, schedule: Q01DX001 (ip), vehicle: other 96 % of control

Nc1cncc([N+](=O)[O-])c1N
inactive: [1] 98 % of control | dose: 200.0 mg/kg/injection, schedule: Q04DX003 (ip), vehicle: saline 96 % of control | dose: 400.0 mg/kg/injection, schedule: Q04DX003 (ip), vehicle: saline 94 % of control

CCCCCCCSCCSCCSCCCCCCC
inactive: dose: 100.0 mg/kg/injection, schedule: Q04DX003 (ip), vehicle: Klucel (hydroxypropylcellulose) (HPC) 101 % of control | dose: 200.0 mg/kg/injection, schedule: Q04DX003 (ip), vehicle: Klucel (hydroxypropylcellulose) (HPC) 95 % of control | dose: 400.0 mg/kg/injection, schedule: Q04DX003 (ip), vehicle: Klucel (hydroxypropylcellulose) (HPC) 95 % of control

COC(=O)C1(C)CCCC2(C)C3CCC(C(C)C)C(CO)C3C(CO)CC12 (stereo unspecified)
inactive: dose: 100.0 mg/kg/injection, schedule: Q04DX003 (ip), vehicle: other 107 % of control | dose: 200.0 mg/kg/injection, schedule: Q04DX003 (ip), vehicle: other 104 % of control | dose: 400.0 mg/kg/injection, schedule: Q04DX003 (ip), vehicle: other 107 % of control

N#CCCNC(=S)Nc1ccccc1
inactive: dose: 25.0 mg/kg/injection, schedule: Q01DX Z (ip), vehicle: methylcellulose (MC) 102 % of control | dose: 50.0 mg/kg/injection, schedule: Q01DX Z (ip), vehicle: methylcellulose (MC) 101 % of control

CCC(C1CCC(O)CC1)C(CC)C1CCC(C2=CC(=O)OC2)CC1 (stereo unspecified)
inactive: [2] 100 % of control | dose: 50.0 mg/kg/injection, schedule: Q04DX003 (ip), vehicle: saline 94 % of control | [1] 94 % of control

O=[N+]([O-])/C=C/c1ccc(Cl)cc1Cl
inactive: dose: 20.0 mg/kg/injection, schedule: Q01DX009 (ip), vehicle: saline with Tween-80 98 % of control | dose: 20.0 mg/kg/injection, schedule: Q04DX003 (ip), vehicle: saline with Tween-80 90 % of control | dose: 25.0 mg/kg/injection, schedule: Q04DX002 (ip), vehicle: Klucel (hydroxypropylcellulose) (HPC) 106 % of control | dose: 40.0 mg/kg/injection, schedule: Q01DX009 (ip), vehicle: saline with Tween-80 102 % of control | dose: 40.0 mg/kg/injection, schedule: Q04DX003 (ip), vehicle: saline with Tween-80 101 % of control | dose: 50.0 mg/kg/injection, schedule: Q01DX001 (ip), vehicle: carboxymethylcellulose (CMC) 95 % of control | dose: 50.0 mg/kg/injection, schedule: Q04DX002 (ip), vehicle: Klucel (hydroxypropylcellulose) (HPC) 100 % of control | dose: 80.0 mg/kg/injection, schedule: Q04DX003 (ip), vehicle: saline with Tween-80 111 % of control | dose: 100.0 mg/kg/injection, schedule: Q01DX001 (ip), vehicle: carboxymethylcellulose (CMC) 98 % of control | dose: 200.0 mg/kg/injection, schedule: Q01DX001 (ip), vehicle: carboxymethylcellulose (CMC) 89 % of control | dose: 400.0 mg/kg/injection, schedule: Q01DX001 (ip), vehicle: carboxymethylcellulose (CMC) 101 % of control

Nc1ccc(CCCC(=O)Nc2ccc(S(=O)(=O)F)cc2)cc1
inactive: [3] 101 % of control | [4] 97 % of control | dose: 400.0 mg/kg/injection, schedule: Q01DX001 (ip), vehicle: saline 103 % of control

OCC1OC(n2ncc3ccccc32)C(O)C1O (stereo unspecified)
inactive: dose: 50.0 mg/kg/injection, schedule: Q01DX005 (ip), vehicle: other 109 % of control | dose: 100.0 mg/kg/injection, schedule: Q01DX005 (ip), vehicle: other 105 % of control | dose: 200.0 mg/kg/injection, schedule: Q01DX005 (ip), vehicle: other 98 % of control

CCCCn1cnc2c(=O)n(C)c(=O)n(C)c21
inactive: [3] 96 % of control | [4] 94 % of control

CCC(C)[Se][Se]C(C)CC (stereo unspecified)
inactive: dose: 6.25 mg/kg/injection, schedule: Q01DX009 (ip), vehicle: saline 94 % of control | dose: 6.25 mg/kg/injection, schedule: Q04DX003 (ip), vehicle: saline 97 % of control | dose: 12.5 mg/kg/injection, schedule: Q01DX009 (ip), vehicle: saline 98 % of control | dose: 12.5 mg/kg/injection, schedule: Q04DX003 (ip), vehicle: saline 103 % of control | dose: 25.0 mg/kg/injection, schedule: Q01DX009 (ip), vehicle: saline 91 % of control | [2] 103 % of control | [1] 89 % of control
